Test results from US8247394B2 (Cempra Pharmaceuticals Inc., priority 2010, dated 2012).
In brackets after ≈: the same amount, converted by molar mass. Where two headings read alike, the source gives them in different places.

How the values were obtained:
C. trachomatis = test: In vitro susceptibility testing of C. trachomatis in cell culture using HEp-2 cells (MIC/MBC); format: cell-based, Chlamydia trachomatis; conditions: for MBC / MIC90: Chlamydia trachomatis
Method: Chlamydia isolates: 10 isolates of C. trachomatis in order to determine the MIC90 and MBC90 for each antibiotic.
C. trachomatis: 10 isolates of C. trachomatis, including standard isolates from the ATCC (E-BOUR, F-IC-CAL3, C-HAR32, J-UW-36, L2434, D-UW-57kx, B-HAR-36) and recent clinical isolates N18 (cervical), N19 (cervical), 7015 (infant eye).
In vitro susceptibility testing: Susceptibility testing of C. trachomatis was performed in cell culture using HEp-2 cells grown in 96-well microtiter plates. Each well was inoculated with 0.1 ml of the test strain diluted to yield 10^3 to 10^4 IFU/per ml, centrifuged at 1,700×g for 1 hr and incubated at 35° C. for 1 hr. Wells were then aspirated and overlaid with 0.2 ml of medium containing 1 μg of cycloheximide per ml and serial two fold dilutions of the test drug. Duplicate plates were inoculated. After incubation at 35° C. for 48-72 hrs, cultures were fixed and stained for inclusions with fluorescein-conjugated antibody to the lipopolysaccharide genus antigen ([…]™, Kallestad Diagnostics, Chaska, Minn.). The minimal inhibitory concentration (MIC) was the lowest antibiotic concentration at which no inclusions are seen. The minimal bactericidal concentration (MBC) was determined by aspirating the antibiotic containing medium, washing wells twice with phosphate buffered saline and adding antibiotic-free medium. Cultures were frozen at −70° C., thawed, passed onto new cells, incubated for 72 hrs then fixed and stained as above. The MBC was the lowest antibiotic concentration that results in no inclusions after passage. All tests were run in triplicate.
Ten isolates of C. trachomatis including standard isolates from the ATCC (E-BOUR, F-IC-CAL3, C-HAR32, J-UW-36, L2434, D-UW-57kx, B-HAR-36) and recent clinical isolates N18 (cervical), N19 (cervical), 7015 (infant eye) were selected for study. Susceptibility testing was performed in cell culture using HEp-2 cells (Roblin et. al. Antimicrob. Agents Chemother. 42:194-196 (1998)) at State University of New York, Downstate Medical Center (Brooklyn, N.Y., USA).

N. gonorrhoeae = test: Reference agar dilution susceptibility testing (CLSI M07-A8) of N. gonorrhoeae clinical isolates; format: cell-based, Neisseria gonorrhoeae
Method: Thirty-five clinical isolates of N. gonorrhoeae collected in the United States (USA), Asia and European medical centers since 2005 were tested using reference agar dilution methods per Clinical and Laboratory Standards Institute (CLSI) M07-A8 (Clinical and Laboratory Standards Institute. 2009. M07-A8, Methods for dilution antimicrobial susceptibility tests for bacteria that grow aerobically; approved standard—eighth edition. Wayne, Pa.: CLSI) and M100-S20 documents (Clinical and Laboratory Standards Institute. 2010. M100-S20, Performance standards for antimicrobial susceptibility testing, 20th informational supplement. Wayne, Pa.: CLSI). […] Quality control (QC) ranges and interpretive criteria for comparator compounds were as published by CLSI (Clinical and Laboratory Standards Institute. 2010. M100-S20, Performance standards for antimicrobial susceptibility testing, 20th informational supplement. Wayne, Pa.: CLSI).

[1] = blood; cited from earlier work
[2] = number of isolates among 35 strains

Compound: C[C@H]1c2cccc(O)c2C(=O)C2=C(O)[C@]3(O)C(=O)C(C(N)=O)=C(O)[C@@H](N(C)C)[C@@H]3[C@@H](O)[C@@H]21 [Doxycycline, doxycycline]
- MBC Range (C. trachomatis; 10 strains): 0.015 to 0.06 µg/mL
- MIC 90% (C. trachomatis; 10 strains): 0.06 µg/mL (≈ 0.135 µM)
- MIC Range (C. trachomatis; 10 strains): 0.015 to 0.06 µg/mL
- MBC (C. trachomatis; 10 strains, read-out: MBC 90%): 0.06 µg/mL (≈ 0.135 µM)
- MIC90 (C. trachomatis; 10 strains of C. trachomatis): 0.06 µg/mL (≈ 0.135 µM)

Compound: CC[C@H]1OC(=O)[C@H](C)C(=O)[C@H](C)[C@@H](O[C@@H]2O[C@H](C)C[C@H](N(C)C)[C@H]2O)[C@](C)(OC)C[C@@H](C)C(=O)[C@H](C)[C@H]2N(CCCCn3cnc(-c4cccnc4)c3)C(=O)O[C@]12C [Telithromycin, telithromycin]
- MBC Range (C. trachomatis; 10 strains): 0.015 to 0.25 µg/mL
- MIC 90% (C. trachomatis; 10 strains): 0.06 µg/mL (≈ 0.0739 µM)
- MIC Range (C. trachomatis; 10 strains): 0.015 to 0.25 µg/mL
- MBC (C. trachomatis; 10 strains, read-out: MBC 90%): 0.06 µg/mL (≈ 0.0739 µM)
- MIC90 (C. trachomatis; 10 strains of C. trachomatis): 0.06 µg/mL (≈ 0.0739 µM)

Compound: penicillin
- MIC50 (N. gonorrhoeae; 35 N. gonorrhoeae strains): 1 µg/mL
- % by category, R (resistant); resistance rate (N. gonorrhoeae; CLSI criteria, 35 strains): 45.7%
- % by category, S (susceptible) (N. gonorrhoeae; CLSI criteria, 35 strains): 22.9%
- Occurrences at MIC 0.015 μg/ml (N. gonorrhoeae; [2]): 1
- Occurrences at MIC 0.03 μg/ml (N. gonorrhoeae; [2]): 4
- Occurrences at MIC 0.06 μg/ml (N. gonorrhoeae; [2]): 3
- Occurrences at MIC 0.25 μg/ml (N. gonorrhoeae; [2]): 2
- Occurrences at MIC 0.5 μg/ml (N. gonorrhoeae; [2]): 4
- Occurrences at MIC 1 μg/ml (N. gonorrhoeae; [2]): 5
- Occurrences at MIC 2 μg/ml (N. gonorrhoeae; [2]): 6
- Occurrences at MIC 4 μg/ml (N. gonorrhoeae; [2]): 4
- Occurrences at MIC >4 μg/ml (N. gonorrhoeae; [2]): 6

Compound: CC(=O)O[C@H]1C[C@@]2(C)[C@@H](C[C@@H](O)[C@H]3[C@@]4(C)CC[C@@H](O)[C@@H](C)[C@@H]4CC[C@@]32C)/C1=C(\CCC=C(C)C)C(=O)O [Fusidic acid]
- Occurrences at MIC 0.25 μg/ml (N. gonorrhoeae): 12
- Occurrences at MIC 0.5 μg/ml (N. gonorrhoeae): 17
- Occurrences at MIC 1 μg/ml (N. gonorrhoeae): 5
- Occurrences at MIC 2 μg/ml (N. gonorrhoeae): 1
- MIC90 (N. gonorrhoeae; Neisseria gonorrhoeae, 35 N. gonorrhoeae strains): 1 µg/mL (≈ 1.94 µM)
- MIC50 (N. gonorrhoeae; Neisseria gonorrhoeae, 35 N. gonorrhoeae strains, read-out: MIC50): 0.5 µg/mL (≈ 0.968 µM)
- Concentration at which active against all strains tested (N. gonorrhoeae; all N. gonorrhoeae strains tested): ≤ 2 µg/mL
- protein binding [1]: 95-97%
- MBC Range (C. trachomatis; 10 strains): 0.12 to 0.5 µg/mL
- MIC 90% (C. trachomatis; 10 strains): 0.5 µg/mL (≈ 0.968 µM)
- MIC Range (C. trachomatis; 10 strains): 0.12 to 0.5 µg/mL
- MIC range (C. trachomatis; 10 strains): 0.12 to 0.5 µg/mL
- MBC (C. trachomatis; 10 strains, read-out: MBC 90%): 0.5 µg/mL (≈ 0.968 µM)
- MIC90 (C. trachomatis; 10 strains of C. trachomatis): 0.5 µg/mL (≈ 0.968 µM)
- MBC (C. trachomatis; 10 strains of C. trachomatis, read-out: MBC90): 0.5 µg/mL (≈ 0.968 µM)

Compound: CC[C@H]1OC(=O)[C@H](C)[C@@H](O[C@H]2C[C@@](C)(OC)[C@@H](O)[C@H](C)O2)[C@H](C)[C@@H](O[C@@H]2O[C@H](C)C[C@H](N(C)C)[C@H]2O)[C@](C)(OC)C[C@@H](C)C(=O)[C@H](C)[C@@H](O)[C@]1(C)O [Clarithromycin, clarithromycin]
- MBC Range (C. trachomatis; 10 strains): 0.015 to 0.12 µg/mL
- MIC 90% (C. trachomatis; 10 strains): 0.06 µg/mL (≈ 0.0802 µM)
- MIC Range (C. trachomatis; 10 strains): 0.015 to 0.12 µg/mL
- MBC (C. trachomatis; 10 strains, read-out: MBC 90%): 0.06 µg/mL (≈ 0.0802 µM)
- MIC90 (C. trachomatis; 10 strains of C. trachomatis): 0.06 µg/mL (≈ 0.0802 µM)
